Laboratory results published in US10668067B2, “Pyridine sulfonamides” (AMGEN INC., priority 2016, dated 2020).

Each molecule was assayed against human Nav1.7 (Homo sapiens (Human), UniProt Q15858) (assay: Nav 1.7 In Vitro PX Assay (PatchXpress whole cell voltage clamp)). Conditions: in-vitro Nav 1.7 PX data.
Assay type: cell-based
How it was run: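 Partially inactivated channels (20–50% inactivation at holding potential) probed by 20 ms pulses to −10 mV repeated at 0.1 Hz, in stable human Nav1.7 HEK293 cells.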

human Nav1.7, sequence (Q15858 whole entry): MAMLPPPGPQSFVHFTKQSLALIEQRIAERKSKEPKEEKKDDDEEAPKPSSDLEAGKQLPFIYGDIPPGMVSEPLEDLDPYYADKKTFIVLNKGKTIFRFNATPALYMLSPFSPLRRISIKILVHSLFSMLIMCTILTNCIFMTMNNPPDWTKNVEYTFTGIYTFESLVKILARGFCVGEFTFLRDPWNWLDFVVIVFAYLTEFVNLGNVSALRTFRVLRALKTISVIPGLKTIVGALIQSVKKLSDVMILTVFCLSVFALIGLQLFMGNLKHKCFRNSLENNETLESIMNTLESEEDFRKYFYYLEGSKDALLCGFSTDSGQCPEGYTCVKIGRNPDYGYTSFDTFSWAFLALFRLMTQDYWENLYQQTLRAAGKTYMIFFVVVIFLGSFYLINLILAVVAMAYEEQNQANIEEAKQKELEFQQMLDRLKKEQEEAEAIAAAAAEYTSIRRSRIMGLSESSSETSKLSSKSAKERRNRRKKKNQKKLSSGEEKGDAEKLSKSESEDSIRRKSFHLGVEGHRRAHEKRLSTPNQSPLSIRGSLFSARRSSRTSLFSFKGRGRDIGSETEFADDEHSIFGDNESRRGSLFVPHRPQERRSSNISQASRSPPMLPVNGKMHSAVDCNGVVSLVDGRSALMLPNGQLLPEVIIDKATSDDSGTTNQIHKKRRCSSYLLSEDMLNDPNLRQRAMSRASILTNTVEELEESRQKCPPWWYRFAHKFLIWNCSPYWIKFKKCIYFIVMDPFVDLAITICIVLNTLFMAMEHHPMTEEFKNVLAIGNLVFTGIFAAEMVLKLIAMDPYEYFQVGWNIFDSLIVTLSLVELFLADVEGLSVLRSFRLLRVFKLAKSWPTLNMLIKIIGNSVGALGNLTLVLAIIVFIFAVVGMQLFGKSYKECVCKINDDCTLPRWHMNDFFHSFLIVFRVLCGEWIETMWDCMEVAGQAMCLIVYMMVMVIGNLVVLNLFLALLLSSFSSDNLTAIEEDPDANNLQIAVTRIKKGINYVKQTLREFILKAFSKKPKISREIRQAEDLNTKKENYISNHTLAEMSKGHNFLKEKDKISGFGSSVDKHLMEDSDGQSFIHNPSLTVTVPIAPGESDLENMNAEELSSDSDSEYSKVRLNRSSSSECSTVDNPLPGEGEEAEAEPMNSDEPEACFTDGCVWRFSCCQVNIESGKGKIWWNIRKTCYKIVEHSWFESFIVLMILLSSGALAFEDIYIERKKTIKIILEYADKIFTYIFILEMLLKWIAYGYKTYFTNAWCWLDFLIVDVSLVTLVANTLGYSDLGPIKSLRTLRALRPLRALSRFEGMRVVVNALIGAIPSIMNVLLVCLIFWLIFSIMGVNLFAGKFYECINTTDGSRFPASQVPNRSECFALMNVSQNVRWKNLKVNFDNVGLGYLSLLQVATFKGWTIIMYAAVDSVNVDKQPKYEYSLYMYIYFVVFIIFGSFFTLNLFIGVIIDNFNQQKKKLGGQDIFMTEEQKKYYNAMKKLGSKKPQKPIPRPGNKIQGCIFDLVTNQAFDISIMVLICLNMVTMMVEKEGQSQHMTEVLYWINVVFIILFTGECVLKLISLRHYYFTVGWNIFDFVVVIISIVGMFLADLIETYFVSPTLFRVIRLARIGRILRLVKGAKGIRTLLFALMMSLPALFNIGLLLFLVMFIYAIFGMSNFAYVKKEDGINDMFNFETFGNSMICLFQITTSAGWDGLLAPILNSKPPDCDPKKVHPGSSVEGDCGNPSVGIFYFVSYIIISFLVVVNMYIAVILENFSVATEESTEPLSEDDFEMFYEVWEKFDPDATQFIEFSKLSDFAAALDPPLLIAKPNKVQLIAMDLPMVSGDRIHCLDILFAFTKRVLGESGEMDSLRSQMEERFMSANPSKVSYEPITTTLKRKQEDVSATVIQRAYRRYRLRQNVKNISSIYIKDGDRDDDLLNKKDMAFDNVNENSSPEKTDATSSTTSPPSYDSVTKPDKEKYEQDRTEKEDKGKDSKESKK

| SMILES | IC50 [µM] |
| --- | --- |
| CNC(=O)N(c1ccc(S(=O)(=O)Nc2cccnn2)cn1)c1cc(Cl)c(-c2ccc(F)c(OCC(F)(F)F)c2)cc1OC [Example 2-4, 6-((2-chloro-4′-fluoro-5-methoxy-3′-(2,2,2-trifluoroethoxy)-4-biphenylyl)(methylcarbamoyl)amino)-N-3-pyridazinyl-3-pyridinesulfonamide] | 0.054 |
| CNC(=O)N(c1ccc(S(=O)(=O)Nc2cccnn2)cn1)c1cc(Cl)c(-c2cc(F)c(F)c(F)c2)cc1OC [Example 2-5, 6-((2-chloro-3′,4′,5′-trifluoro-5-methoxy-4-biphenylyl)(methylcarbamoyl)amino)-N-3-pyridazinyl-3-pyridinesulfonamide] | 0.075 |
| CNC(=O)N(c1ccc(S(=O)(=O)Nc2cccnn2)cn1)c1cc(Cl)c(-c2cc(OC)nc(C(F)(F)F)c2)cc1OC [Example 2-6, 6-((5-chloro-2-methoxy-4-(2-methoxy-6-(trifluoromethyl)-4-pyridinyl)phenyl)(methylcarbamoyl)amino)-N-3-pyridazinyl-3-pyridinesulfonamide] | 0.026 |
| CNC(=O)N(c1ccc(S(=O)(=O)Nc2nocc2C)cn1)c1cc(F)c(-c2ccc(F)c(OC(F)(F)F)c2)cc1OC [Example 2-12, 6-(1-(2,4′-difluoro-5-methoxy-3′-(trifluoromethoxy)-[1,1′-biphenyl]-4-yl)-3-methylureido)-N-(4-methylisoxazol-3-yl)pyridine-3-sulfonamide] | 0.0635 |
| CNC(=O)N(c1ccc(S(=O)(=O)Nc2nocc2C)cn1)c1cc(F)c(-c2ccc(F)c(C(F)(F)F)c2)cc1OC [Example 2-13, 6-(1-(2,4′-difluoro-5-methoxy-3′-(trifluoromethyl)-[1,1′-biphenyl]-4-yl)-3-methylureido)-N-(4-methylisoxazol-3-yl)pyridine-3-sulfonamide] | 0.116 |
| CNC(=O)N(c1ccc(S(=O)(=O)Nc2nocc2C)cn1)c1cc(F)c(-c2ccc(F)c(OCC(F)(F)F)c2)cc1OC [Example 2-14, 6-(1-(2,4′-difluoro-5-methoxy-3′-(2,2,2-trifluoroethoxy)-[1,1′-biphenyl]-4-yl)-3-methylureido)-N-(4-methylisoxazol-3-yl)pyridine-3-sulfonamide] | 0.621 |

Now those with a lower IC50, led by results:

| IC50 [µM] | SMILES |
| --- | --- |
| 0.007 | CNC(=O)N(c1ccc(S(=O)(=O)Nc2ncccn2)cn1)c1cc(F)c(-c2ccc(F)c(C(F)F)c2)cc1OC [Example 2-2, 6-((3′-(difluoromethyl)-2,4′-difluoro-5-methoxy-4-biphenylyl)(methylcarbamoyl)amino)-N-2-pyrimidinyl-3-pyridinesulfonamide] |
| 0.004 | CNC(=O)N(c1ccc(S(=O)(=O)Nc2ncccn2)cn1)c1ccc(-c2ccc(F)c(OC(F)(F)F)c2)cc1OC [Example 2-7, 6-((4′-fluoro-3-methoxy-3′-(trifluoromethoxy)-4-biphenylyl)(methylcarbamoyl)amino)-N-2-pyrimidinyl-3-pyridinesulfonamide] |
| 0.017 | CNC(=O)N(c1ccc(S(=O)(=O)Nc2ncccn2)cn1)c1ccc(-c2ccc(F)c(C(F)(F)F)c2)cc1OC [Example 2-8, 6-((4′-fluoro-3-methoxy-3′-(trifluoromethyl)-4-biphenylyl)(methylcarbamoyl)amino)-N-2-pyrimidinyl-3-pyridinesulfonamide] |
| 0.008 | CNC(=O)N(c1ccc(S(=O)(=O)Nc2ncccn2)cn1)c1cc(Cl)c(-c2ccc(F)c(OC(F)(F)F)c2)cc1OC [Example 2-10, 6-((2-chloro-4′-fluoro-5-methoxy-3′-(trifluoromethoxy)-4-biphenylyl)(methylcarbamoyl)amino)-N-2-pyrimidinyl-3-pyridinesulfonamide] |
| 0.014 | CCCCCCCCCCCCCCc1cc(OC)c(N(C(=O)NC)c2ccc(S(=O)(=O)Nc3ncccn3)cn2)cc1F [Example 2-11, 6-(1-(5-Fluoro-2-methoxy-4-tetradecylphenyl)-3-methylureido)-N-(pyrimidin-2-yl)pyridine-3-sulfonamide] |
